# Values quoted from earlier work in patent publication US20170035825A1, “FOOD SUPPLEMENT COMPOSITION COMPRISING A CUCUMBER (CUCUMIS SATIVUS) EXTRACT” (NATURALEA SA, priority 2014, published 2017).
# System: uterus explants
structure (smiles),measurement,setting,value
"O=C(O)[C@@H]1NC[C@H](O)[C@@H](O)[C@@H]1O [ido-BR1, (2R,3R,4R,5S)-3,4,5-trihydroxypiperidine-2-carboxylic acid]",effect on inflammation at 72 h,72 h,not significant
same,inflammation in the uterus explants,dose-dependent,abrogated inflammation in the uterus explants
